{"source": "patent US7632819B1", "about": "“Methods and compositions for inhibiting PKC delta cleavage for treatment and prevention of neurodegeneration and apoptosis” (Iowa State University Research Foundation, Inc., priority 2004, dated 2009)", "tested_on": "PKCδ", "experiment": "Immunoprecipitation kinase assay (histone H1 phosphorylation) in N27 cells", "assay_type": "cell-based, rat", "conditions": "inhibitor 50 μM", "excerpt": "Chemicals. Protease cocktail, ATP, protein-A-sepharose, protein-G-sepharose and anti-â-actin antibody were obtained from Sigma-Aldrich (St. Louis, Mo.); mouse tyrosine hydroxylase antibody was purchased from Chemicon (Temecula, Calif.); the rabbit polyclonal antibody for tyrosine hydroxylase was obtained from Calbiochem Bioscience, Inc. (King of Prussia, Pa.); rabbit PKCδ antibody was purchased from Santa Cruz Biotechnology, Inc. (Santa Cruz, Calif.); anti-rabbit and anti-mouse secondary antibodies and the ECL chemiluminescence kit were purchased from Amersham Pharmacia Biotech. (Piscataway, N.J.). Alexa 488 conjugated antirabbit/mouse, Cy3 conjugated anti-rabbit/mouse antibody and Hoechst 33342 were purchased from Molecular Probes, Inc. (Eugene, Oreg.). [ã-32P]ATP was purchased from Perkin Elmer Life Science Products (Boston, Mass.). The Bradford protein assay kit was purchased from Bio-Rad Laboratories (Hercules, Calif.). RPMI, fetal bovine serum, -glutamine, penicillin, and streptomycin were purchased from Invitrogen (Gaithersburg, Md.). Quantity One 4.2.0 software was purchased from Bio-Rad. Design and synthesis of z-DIPD-fmk (SEQ ID NO:5). To develop a cell permeable peptide inhibitor to specifically block PKCδ cleavage, we designed the tetrapeptide Asp-Ile-Pro-Asp (DIPD) (SEQ ID NO:5) corresponding to position 324-327 in rat PKCδ cDNA representing the caspase-3 cleavage site. Since this peptide is directed against the caspase-3 cleavage site of PKCδ, it should prevent the proteolytic cleavage and activation of PKCδ mediated by caspase-3. The custom synthesis of the tetrapeptide Z-Asp(OMe)-Ile-Pro-Asp(OMe)-FMK (SEQ ID NO:5) was performed at MP Biomedicals (Irvine, Calif.), a quality company that specializes in developing cell permeable peptide inhibitors directed against apoptosis cell signaling molecules. Briefly, the synthesis was performed with the reaction of Boc-D(OMe)-OH with MBFM (Magnesium benzyl fluoromalonate) to produce Beta-Keto fluoroester, followed by hydrogenation with Pd/c to produce Boc-D(OMe)FK, which was converted into Tfa salt using trifluoroacetic acid. Coupling of Tfa salt with Z-D(OMe)—I—P—OH in DMF with HOBT, HBTU DIEA and workup produced a crude product which was purified by column chromatography over silica gel. Elution with EtOAC:MeOH 95:5 gave pure fractions which were mixed and dried. Crystallization with EtOAC/Hexane, filtration and drying produced the pure product. Animals. Time-pregnant C57/bL mice were housed under standard conditions: constant temperature (22±1° C.), humidity (relative, 30%) and a 12-h light/dark cycle with free access to food and water. The animals and protocol procedures were approved and supervised by the Committee on Animal Care (COAC) at Iowa State University. Cell culture. […]", "note": "Where a SMILES comes first, the peptide text is derived from it. The star is where a group is joined. Cbz = O=C(OCc1ccccc1)*; CH2F = FC*", "data": [{"smiles": "CC[C@H](C)[C@H](NC(=O)[C@H](CC(=O)OC)NC(=O)OCc1ccccc1)C(=O)N1CCC[C@H]1C(=O)N[C@@H](CC(=O)OC)C(=O)CF", "note": "[z-DIPD-fmk, Z-Asp(OMe)-Ile-Pro-Asp(OMe)-FMK] (Cbz-D(OMe)IPD(OMe)-CH2F)", "values": [{"measurement": "effect on 6-OHDA-induced PKCδ kinase activity", "setting": "100 μM 6-OHDA 24 hr", "value": "almost completely suppressed"}, {"measurement": "effect on MPP+-induced PKCδ kinase activity", "setting": "300 μM MPP+ 36 hr", "value": "almost completely suppressed"}]}]}
